Test results: paper PMC3039446 (Cancer research, 2010)
“Also recorded” adds a separate entry of the source. Where two headings read alike, the source gives them in different places. Marks after values point to notes of the source that are not given here. One block for each compound: values may come before it.

Experiments:
OVCAR-8 = experiment: SRB cytotoxicity assay, OVCAR-8; format: cell-based, human
PPC-1 [1] = experiment: SRB cytotoxicity assay, PPC-1; format: cell-based, human
A375 melanoma xenograft = conditions: 34 days; for % T/C: A375 melanoma xenograft; for Tumor volume at end of treatment: A375 xenograft, control 2183 ± 279
[2] = tested on: PC-3 prostate tumor xenograft; conditions: for %T/C values (range): both PC-3 and A375 xenograft models, doses 5 to 20 mg/kg
LNCaP [3] = conditions: read-out: IC50 ± SEM; LNCaP prostate, SRB; previously reported ref 11; cited from earlier work
B16-F1 [4] = conditions: read-out: IC50 ± SEM; B16-F1 melanoma, SRB; previously reported ref 11; cited from earlier work
PC-3 [5] = conditions: read-out: IC50 ± SEM; PC-3 prostate, SRB; previously reported ref 11; cited from earlier work
[6] = Pharmacokinetic study in Sprague-Dawley rats, i.v.; conditions: 2.5 mg/kg i.v.
A375 [7] = conditions: read-out: IC50 ± SEM; A375 melanoma, SRB; previously reported ref 11; cited from earlier work
[8] = Pharmacokinetic study in ICR mice, i.v.; conditions: 15 mg/kg i.v.
[9] = rat, in vivo, iv, 2.5 mg/kg
Bovine brain tubulin = experiment: In vitro microtubule; format: biochemical; conditions: 10 μM compound, absorbance 340 nm, 15 min
ICR mice [10] = experiment: Acute toxicity study in ICR mice; format: in vivo; conditions: 4 consecutive days of intraperitoneal dosing
B16-F1 [11] = experiment: SRB cytotoxicity assay, B16-F1; format: cell-based
ICR mice [12] = experiment: Rotarod test
PC-3 [13] = experiment: SRB cytotoxicity assay, PC-3; format: cell-based, human
LNCaP [14] = experiment: SRB cytotoxicity assay, LNCaP; format: cell-based, human; conditions: read-out: IC50 ± SEM
Du-145 [15] = experiment: SRB cytotoxicity assay, Du-145; format: cell-based, human
A375 [16] = experiment: SRB cytotoxicity assay, A375; format: cell-based, human
PC-3 and A375 cells = experiment: Apoptosis detection by ELISA; format: cell-based, human; conditions: 24 h treatment
NCI/ADR-RES = experiment: SRB cytotoxicity assay, NCI/ADR-RES; format: cell-based, human
[17] = tested on: prostate cancer and melanoma cell lines; experiment: SRB antiproliferative assay, ranges over the cell line panel; format: cell-based, human; conditions: read-out: IC50 (range over cell lines), Table 1 cell lines
ICR mice [18] = conditions: mouse, 15 mg/kg
PPC-1 [19] = conditions: read-out: IC50 ± SEM; PPC-1 prostate, SRB; previously reported ref 11; cited from earlier work
PC-3 cells = format: cell-based, human
[20] = mice, 15 mg/kg i.v.; ref C. M. Li et al, in press; cited from earlier work
Du-145 [21] = conditions: read-out: IC50 ± SEM; Du-145 prostate, SRB; previously reported ref 11; cited from earlier work
[22] = cited from earlier work
tubulin = experiment: MS competitive binding assay on tubulin binding sites
[23] = Homo sapiens, PPC-1, read-out: IC50 ± SEM
[24] = PC-3 xenograft, 5 mg/kg, start 150 mm^3, control 680 ± 198
[25] = PC-3 xenograft, 15 mg/kg, start 150 mm^3, control 680 ± 198
[26] = read-out: IC50 ± SEM, OVCAR-8 ovarian (parent), SRB, n = 3

SMILES: CC(=O)O[C@H]1C(=O)[C@@]2(C)[C@H]([C@H](OC(=O)c3ccccc3)[C@]3(O)C[C@H](OC(=O)[C@H](O)[C@@H](NC(=O)c4ccccc4)c4ccccc4)C(C)=C1C3(C)C)[C@]1(OC(C)=O)CO[C@@H]1C[C@@H]2O [Paclitaxel]
IC50 (OVCAR-8; Homo sapiens, OVCAR-8, read-out: IC50 ± SEM): 0.0047 ± 0.0001 µM
IC50 (PPC-1 [1]; [23]): 0.0023 ± 0.0008 µM

SMILES: COc1cc(C(=O)c2csc(-c3ccc(F)cc3)n2)cc(OC)c1OC [SMART-F]
% T/C (A375 melanoma xenograft; 15 mg/kg i.p. daily, 15 mg/kg): 29%
Tumor volume at end of treatment (A375 melanoma xenograft; 15 mg/kg): 722 ± 135 mm^3
Tumor volume by day 21 [2, 24]: 269 ± 177 mm^3
Tumor volume by day 21 [2, 25]: 292 ± 103 mm^3
%T/C values (range) [2]: 4–30%
IC50 (LNCaP [3]): 0.006 ± 0.001 µM
IC50 (B16-F1 [4]): 0.043 ± 0.021 µM
IC50 (PC-3 [5]): 0.013 ± 0.001 µM
t1/2 [6]: 40.17 h
IC50 (A375 [7]): 0.033 ± 0.014 µM
IC50 (OVCAR-8; [26]): 0.034 ± 0.003 µM
t1/2 [8]: 2.35 h
AUC [9]: 1.6 µg·h/mL
CL [9]: 0.66 L/h/kg
Vss [9]: 34 L/kg
Inhibition of tubulin polymerization (Bovine brain tubulin): 90%
Doses that did not cause greater than 10% loss of body weight (ICR mice [10]): ≤ 15 mg/kg

SMILES: CC[C@]1(O)C[C@@H]2CN(CCc3c([nH]c4ccccc34)[C@@](C(=O)OC)(c3cc4c(cc3OC)N(C)[C@H]3[C@@](O)(C(=O)OC)[C@H](OC(C)=O)[C@]5(CC)C=CCN6CC[C@]43[C@@H]65)C2)C1 [Vinblastine]
IC50 (B16-F1 [11]; Mus musculus, B16-F1, read-out: IC50 ± SEM): 0.0047 ± 0.0007 µM
Rotarod performance (time on rotating rod) vs vehicle (ICR mice [12]; 0.5 mg/kg i.p. daily, to day 31, 0.5 mg/kg): gradually reduced the time (in seconds) that the mice could stay on the rotating rod, and attained significance by days 27 and 31; also recorded: lesser ability to stay on the rotating rod
Rotarod post-observation after treatment stopped (ICR mice [12]; 4 weeks after drug treatment was stopped): failed to return to baseline
IC50 (PC-3 [13]; Homo sapiens, PC-3, read-out: IC50 ± SEM): 0.0021 ± 0.0002 µM
IC50 (LNCaP [14]; Homo sapiens, LNCaP): 0.0011 ± 0.0001 µM
IC50 (Du-145 [15]; Homo sapiens, DU-145, read-out: IC50 ± SEM): 0.0018 ± 0.0011 µM
IC50 (PPC-1 [1]; [23]): 0.0011 ± 0.0004 µM
IC50 (A375 [16]; Homo sapiens, A-375, read-out: IC50 ± SEM): 0.0011 ± 0.0002 µM

IC50 [17]: 0.076 to 0.116 µM
SMILES: COc1cc(C(=O)c2csc(-c3ccc(O)cc3)n2)cc(OC)c1OC [SMART-OH]
IC50 (B16-F1 [11]; read-out: IC50 ± SEM, B16-F1 melanoma, SRB, n = 3): 0.113 ± 0.006 µM
Concentration inducing apoptosis (cytoplasmic DNA-histone complexes) (PC-3 and A375 cells): ≥ 200 nM
Potency relative to SMART-H (fold less) ([2]; PC-3 xenograft model, SMART-OH at higher dosage): 10 fold
Tumor volume at day 21 ([2]; PC-3 xenograft, 50 mg/kg, start 150 mm^3, control 680 ± 198): 331 ± 130 mm^3
Resistance Factor (NCI/ADR-RES; NCI/ADR-RES relative to OVCAR-8): 0.4
IC50 (NCI/ADR-RES; read-out: IC50 ± SEM, NCI/ADR-RES ovarian (P-gp over-expressing), SRB, n = 3): 0.045 ± 0.005 µM
IC50 (PC-3 [13]; read-out: IC50 ± SEM, PC-3 prostate, SRB, n = 3): 0.087 ± 0.005 µM
IC50 (LNCaP [14]; LNCaP prostate, SRB, n = 3): 0.103 ± 0.009 µM
IC50 (OVCAR-8; [26]): 0.11 ± 0.008 µM
IC50 (Du-145 [15]; read-out: IC50 ± SEM, Du-145 prostate, SRB, n = 3): 0.116 ± 0.014 µM
IC50 (PPC-1 [1]; read-out: IC50 ± SEM, PPC-1 prostate, SRB, n = 3): 0.076 ± 0.002 µM
IC50 (A375 [16]; read-out: IC50 ± SEM, A375 melanoma, SRB, n = 3): 0.093 ± 0.011 µM
Inhibition of tubulin polymerization (Bovine brain tubulin): 55%

SMILES: COc1cc(C(=O)c2csc(-c3ccccc3)n2)cc(OC)c1OC [SMART-H]
% T/C (A375 melanoma xenograft; 20 mg/kg i.p. daily, 20 mg/kg): 28%
Tumor volume at end of treatment (A375 melanoma xenograft; 20 mg/kg): 775 ± 107 mm^3
Neurotoxicity in vivo (ICR mice [18]): failed to produce any apparent neurotoxicity
Tumor volume by day 21 [2, 24]: 370 ± 103 mm^3
Tumor volume by day 21 [2, 25]: 176 ± 112 mm^3
%T/C values (range) [2]: 4–30%
Rotarod performance (time on rotating rod) vs vehicle (ICR mice [12]; 5 or 15 mg/kg i.p. daily, to day 31): no significant difference; also recorded: did not show significant impairment in motor coordination
IC50 (LNCaP [3]): 0.028 ± 0.004 µM
IC50 (PPC-1 [19]): 0.043 ± 0.005 µM
IC50 (PC-3 cells; PC-3 cells from ATCC (in vitro control)): 0.0291 ± 0.0011 µM
IC50 (PC-3 cells; dissociated cells from SMART-H (15 mg/kg, 21 days) treated PC-3 tumors): 0.0304 ± 0.0005 µM
IC50 (PC-3 cells; dissociated cells from vehicle treated PC-3 tumors, 21 days): 0.0291 ± 0.0008 µM
IC50 (B16-F1 [4]): 0.055 ± 0.005 µM
IC50 (PC-3 [5]): 0.021 ± 0.001 µM
t1/2 [20]: 140 ^a min
IC50 (Du-145 [21]): 0.071 ± 0.004 µM
IC50 (A375 [7]): 0.028 ± 0.005 µM
AUC ([22]; rat, in vivo, iv, 2.5 mg/kg): 5.8 ^a hr * μg/mL
CL ([22]; rat, in vivo, iv, 2.5 mg/kg): 6 ^a mL/min/kg
Vss ([22]; rat, in vivo, iv, 2.5 mg/kg): 7.6 ^a L/kg
t1/2 ([22]; rats, 2.5 mg/kg i.v., ref C. M. Li et al, in press): 1431 ^a min
IC50 (OVCAR-8; [26]): 0.035 ± 0.002 µM
Inhibition of tubulin polymerization (Bovine brain tubulin): 90%
Competition with colchicine binding to tubulin (tubulin): specifically competed with colchicine binding to tubulin
Competition with paclitaxel binding to tubulin (tubulin): did not compete
Competition with vinblastine binding to tubulin (tubulin): did not compete
Doses that did not cause greater than 10% loss of body weight (ICR mice [10]): up to 30 mg/kg
